Data taken from patent US9096602B2, “Substituted pyrrolo[2,3-B]pyrazines as ATR kinase inhibitors” (Vertex Pharmaceuticals Incorporated, priority 2011, dated 2015).

target: T1, ATR kinase (full-length ATR) (Homo sapiens, UniProt Q13535); assay: ATR Inhibition Assay (radioactive-phosphate incorporation); assay type: biochemical; details: not given
T1 construct: Assays were carried out at 25° C. in the presence of 5 nM full-length ATR
Method in brief: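 Radiometric 33P filter assay with 5 nM full-length ATR in 50 mM Tris/HCl pH 7.5, 10 mM MgCl2, 1 mM DTT at 25 °C. Final 10 μM [γ-33P]ATP and 800 μM peptide; 10 min compound preincubation, ATP start, stopped at 24 h with phosphoric acid/ATP. Ki(app) from non-linear regression of background-corrected initial rates.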

T1 sequence (Q13535 whole entry): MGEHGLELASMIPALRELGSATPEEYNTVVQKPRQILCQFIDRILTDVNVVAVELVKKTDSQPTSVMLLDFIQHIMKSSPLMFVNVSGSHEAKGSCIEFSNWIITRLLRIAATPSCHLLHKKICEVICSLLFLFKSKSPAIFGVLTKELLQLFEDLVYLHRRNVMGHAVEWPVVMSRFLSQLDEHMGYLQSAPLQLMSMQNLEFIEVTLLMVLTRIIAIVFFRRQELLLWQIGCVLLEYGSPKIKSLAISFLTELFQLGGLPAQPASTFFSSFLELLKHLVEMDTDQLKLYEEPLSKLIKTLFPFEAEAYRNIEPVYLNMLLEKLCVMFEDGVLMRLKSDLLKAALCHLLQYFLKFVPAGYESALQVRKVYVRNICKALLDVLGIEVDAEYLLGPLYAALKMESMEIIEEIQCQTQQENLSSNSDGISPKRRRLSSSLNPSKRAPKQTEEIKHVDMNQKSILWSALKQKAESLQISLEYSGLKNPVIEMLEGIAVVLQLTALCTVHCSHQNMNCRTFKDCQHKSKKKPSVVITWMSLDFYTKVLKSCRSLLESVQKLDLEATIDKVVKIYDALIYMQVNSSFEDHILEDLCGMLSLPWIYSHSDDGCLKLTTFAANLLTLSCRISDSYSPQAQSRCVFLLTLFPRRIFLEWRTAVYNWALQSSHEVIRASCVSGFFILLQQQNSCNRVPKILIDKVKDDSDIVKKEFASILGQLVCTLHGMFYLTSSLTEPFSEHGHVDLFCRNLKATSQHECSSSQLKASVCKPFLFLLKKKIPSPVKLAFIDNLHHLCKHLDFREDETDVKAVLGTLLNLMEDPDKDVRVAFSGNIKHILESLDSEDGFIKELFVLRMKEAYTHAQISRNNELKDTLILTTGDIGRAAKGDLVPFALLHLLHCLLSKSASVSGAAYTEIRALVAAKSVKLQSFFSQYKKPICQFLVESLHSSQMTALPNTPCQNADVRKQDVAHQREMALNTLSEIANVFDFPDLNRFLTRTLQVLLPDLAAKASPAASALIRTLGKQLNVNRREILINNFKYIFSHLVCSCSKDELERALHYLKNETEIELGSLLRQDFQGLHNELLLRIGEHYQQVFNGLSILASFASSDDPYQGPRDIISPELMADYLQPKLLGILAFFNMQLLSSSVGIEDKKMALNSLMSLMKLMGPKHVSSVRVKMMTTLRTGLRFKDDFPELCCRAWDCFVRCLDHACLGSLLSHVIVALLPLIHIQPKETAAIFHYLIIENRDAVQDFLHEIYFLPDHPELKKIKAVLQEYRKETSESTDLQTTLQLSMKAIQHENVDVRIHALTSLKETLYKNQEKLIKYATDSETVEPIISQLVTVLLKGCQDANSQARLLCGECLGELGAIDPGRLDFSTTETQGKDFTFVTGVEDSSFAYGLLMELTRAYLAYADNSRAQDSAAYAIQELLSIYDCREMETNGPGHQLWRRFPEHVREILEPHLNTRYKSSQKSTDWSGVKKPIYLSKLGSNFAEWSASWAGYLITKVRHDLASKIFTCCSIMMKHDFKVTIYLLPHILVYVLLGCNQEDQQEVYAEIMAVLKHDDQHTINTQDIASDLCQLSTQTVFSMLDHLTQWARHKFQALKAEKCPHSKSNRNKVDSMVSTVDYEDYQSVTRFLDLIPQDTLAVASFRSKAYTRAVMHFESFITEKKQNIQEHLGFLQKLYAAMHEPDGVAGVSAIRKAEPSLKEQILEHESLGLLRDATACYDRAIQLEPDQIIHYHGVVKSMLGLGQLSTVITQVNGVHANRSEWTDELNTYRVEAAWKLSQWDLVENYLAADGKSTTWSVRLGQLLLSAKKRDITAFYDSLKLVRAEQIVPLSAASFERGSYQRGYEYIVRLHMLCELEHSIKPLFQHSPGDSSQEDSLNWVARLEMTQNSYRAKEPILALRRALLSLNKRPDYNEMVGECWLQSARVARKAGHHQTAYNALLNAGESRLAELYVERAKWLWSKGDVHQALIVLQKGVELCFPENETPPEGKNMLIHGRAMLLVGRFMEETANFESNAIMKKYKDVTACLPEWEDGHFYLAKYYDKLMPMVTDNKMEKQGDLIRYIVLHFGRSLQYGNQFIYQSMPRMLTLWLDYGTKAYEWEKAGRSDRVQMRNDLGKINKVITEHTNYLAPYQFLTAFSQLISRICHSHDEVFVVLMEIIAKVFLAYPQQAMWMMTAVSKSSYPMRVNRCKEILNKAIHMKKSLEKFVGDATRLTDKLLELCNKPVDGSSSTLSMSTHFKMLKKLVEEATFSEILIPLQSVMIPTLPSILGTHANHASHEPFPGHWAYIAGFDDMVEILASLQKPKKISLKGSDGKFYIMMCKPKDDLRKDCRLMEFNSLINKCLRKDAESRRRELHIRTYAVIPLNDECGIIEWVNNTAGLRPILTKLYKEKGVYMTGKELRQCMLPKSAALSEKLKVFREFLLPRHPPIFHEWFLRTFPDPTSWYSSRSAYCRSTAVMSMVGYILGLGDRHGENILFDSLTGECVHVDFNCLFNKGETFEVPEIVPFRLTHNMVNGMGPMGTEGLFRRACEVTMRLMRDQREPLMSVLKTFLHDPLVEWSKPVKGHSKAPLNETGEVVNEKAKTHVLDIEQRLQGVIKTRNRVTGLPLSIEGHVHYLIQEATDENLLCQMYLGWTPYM

Row | SMILES | Ki
1 | CC(C)S(=O)(=O)c1ccc(-c2cnc3[nH]cc(C(=O)N4CCC5(CC4)OCCO5)c3n2)cc1 [Compound I-128, 1,4-dioxa-8-azaspiro[4.5]decan-8-yl-[2-(4-isopropylsulfonylphenyl)-5H-pyrrolo[2,3-b]pyrazin-7-yl]methanone] | < 100 nM

same assay, conditions: Ki(app); 5 nM full-length ATR, 10 μM ATP, 800 μM target peptide, 25° C.; class symbols; read-out: ATR Inhibition Ki

Row | SMILES | Ki
2 | CC(C)S(=O)(=O)c1ccc(-c2cnc3[nH]cc(C(=O)NC4CNC4)c3n2)cc1 [Compound I-122, N-(azetidin-3-yl)-2-(4-isopropylsulfonylphenyl)-5H-pyrrolo[2,3-b]pyrazine-7-carboxamide] | 500 to 5000 nM
3 | CC(C)S(=O)(=O)c1ccc(-c2cnc3[nH]cc(C(=O)N[C@@H](C(N)=O)c4ccccc4)c3n2)cc1 [Compound I-123, N-[(1R)-2-amino-2-oxo-1-phenyl-ethyl]-2-(4-isopropylsulfonylphenyl)-5H-pyrrolo[2,3-b]pyrazine-7-carboxamide] | 100 to 500 nM
4 | CC(C)S(=O)(=O)c1ccc(-c2cnc3[nH]cc(C(=O)N[C@H](C(N)=O)c4ccccc4)c3n2)cc1 [Compound I-124, N-[(1S)-2-amino-2-oxo-1-phenyl-ethyl]-2-(4-isopropylsulfonylphenyl)-5H-pyrrolo[2,3-b]pyrazine-7-carboxamide] | 100 to 500 nM
5 | CC(C)S(=O)(=O)c1ccc(-c2cnc3[nH]cc(C(=O)NCc4ccc5c(c4)OCO5)c3n2)cc1 [Compound I-125, N-(1,3-benzodioxol-5-ylmethyl)-2-(4-isopropylsulfonylphenyl)-5H-pyrrolo[2,3-b]pyrazine-7-carboxamide] | < 100 nM
6 | CC(c1cccc(Cl)c1)N(C)C(=O)c1c[nH]c2ncc(-c3ccc(S(=O)(=O)C(C)C)cc3)nc12 (stereo not shown) [Compound I-126, N-[1-(3-chlorophenyl)ethyl]-2-(4-isopropylsulfonylphenyl)-N-methyl-5H-pyrrolo[2,3-b]pyrazine-7-carboxamide] | < 100 nM
7 | CC(C)S(=O)(=O)c1ccc(-c2cnc3[nH]cc(C(=O)NC4CCC(CO)CC4)c3n2)cc1 (stereo not shown) [Compound I-127, N-[4-(hydroxymethyl)cyclohexyl]-2-(4-isopropylsulfonylphenyl)-5H-pyrrolo[2,3-b]pyrazine-7-carboxamide] | < 100 nM
8 | CC(C)S(=O)(=O)c1ccc(-c2cnc3[nH]cc(C(=O)NCc4ccccc4CO)c3n2)cc1 [Compound I-129, N-[[2-(hydroxymethyl)phenyl]methyl]-2-(4-isopropylsulfonylphenyl)-5H-pyrrolo[2,3-b]pyrazine-7-carboxamide] | < 100 nM
9 | CC(c1ccc(Cl)cc1)N(C)C(=O)c1c[nH]c2ncc(-c3ccc(S(=O)(=O)C(C)C)cc3)nc12 (stereo not shown) [Compound I-135, N-[1-(4-chlorophenyl)ethyl]-2-(4-isopropylsulfonylphenyl)-N-methyl-5H-pyrrolo[2,3-b]pyrazine-7-carboxamide] | < 100 nM

same assay, conditions: Ki(app); 5 nM full-length ATR, 10 μM ATP, 800 μM target peptide, 25° C.; given as numeric lower bound without unit; read-out: ATR Inhibition Ki

Row | SMILES | Ki
10 | CC(C)S(=O)(=O)c1ccc(-c2cnc3[nH]cc(C(=O)N4CCOc5ccccc5C4)c3n2)cc1 [Compound I-130, 3,5-dihydro-2H-1,4-benzoxazepin-4-yl-[2-(4-isopropylsulfonylphenyl)-5H-pyrrolo[2,3-b]pyrazin-7-yl]methanone] | > 250 nM
11 | CC(C)S(=O)(=O)c1ccc(-c2cnc3[nH]cc(C(=O)N(CC(N)=O)C4CCCC4)c3n2)cc1 [Compound I-131, N-(2-amino-2-oxo-ethyl)-N-cyclopentyl-2-(4-isopropylsulfonylphenyl)-5H-pyrrolo[2,3-b]pyrazine-7-carboxamide] | > 40 nM
12 | CC(C)S(=O)(=O)c1ccc(-c2cnc3[nH]cc(C(=O)N4CCN(C(=O)OC(C)(C)C)CC4)c3n2)cc1 [Compound I-132, tert-butyl 4-[2-(4-isopropylsulfonylphenyl)-5H-pyrrolo[2,3-b]pyrazine-7-carbonyl]piperazine-1-carboxylate] | > 2500 nM
13 | CC(C)S(=O)(=O)c1ccc(-c2cnc3[nH]cc(C(=O)Nc4cc(C(C)(C)C)on4)c3n2)cc1 [Compound I-133, N-(5-tert-butylisoxazol-3-yl)-2-(4-isopropylsulfonylphenyl)-5H-pyrrolo[2,3-b]pyrazine-7-carboxamide] | > 40 nM
14 | CC(C)S(=O)(=O)c1ccc(-c2cnc3[nH]cc(C(=O)N4CCCN(C(=O)OC(C)(C)C)CC4)c3n2)cc1 [Compound I-134, tert-butyl 4-[2-(4-isopropylsulfonylphenyl)-5H-pyrrolo[2,3-b]pyrazine-7-carbonyl]-1,4-diazepane-1-carboxylate] | > 40 nM
15 | CC(C)S(=O)(=O)c1ccc(-c2cnc3[nH]cc(C(=O)N4CCCNCC4)c3n2)cc1 [Compound I-136, 1,4-diazepan-1-yl-[2-(4-isopropylsulfonylphenyl)-5H-pyrrolo[2,3-b]pyrazin-7-yl]methanone] | > 250 nM
16 | CC(C)S(=O)(=O)c1ccc(-c2cnc3[nH]cc(C(=O)N4CCNCC4)c3n2)cc1 [Compound I-137, [2-(4-isopropylsulfonylphenyl)-5H-pyrrolo[2,3-b]pyrazin-7-yl]-piperazin-1-yl-methanone] | > 250 nM
